“Also recorded” adds a separate entry of the source.
What was measured:
hair cycle = assay: Topical treatment of mice in telogen with UK-5099: hair cycle / HFSC activation; format: in vivo
Description: (§1) FIG. 7A: Animals treated topically with UK-5099 (20 μM) show pigmentation and hair growth, indicative of entry into anagen, after 8 days of treatment. Full anagen, indicated by full coat of hair, is achieved after 14 days of treatment. […] Images shown are representative of at least 14 mice from 7 independent experiments. Scale bars indicate 100 micrometers. FIG. 7B: Graph showing time to observed phenotype in vehicle versus UK-5099 treated mice. n=6 mice per condition. Shown as mean±SEM. […] Ldh activity is indicated by purple stain; pink is nuclear fast red counterstain. Scale bars indicate 50 micrometers. FIG. 7D: Metabolomic analysis of Lactate on HFSCs isolated from UK-5099 treated skin for 48 hours; Each bar represents the average signal for each condition where n=9 mice pooled from 3 independent experiments. Shown as mean±SEM. Paired t-test was performed, p<0.05.
(§2) Quantification of the hair cycle across at least 6 pairs of animals (vehicle vs UK-5099) indicated a strong acceleration of the hair cycle, in as few as 6-9 days (FIG. 7B).

[1] = system: Ldh activity in HFSCs and the interfollicular epidermis; assay: Ldh enzyme activity assay in the epidermis of topically treated animals; format: in vivo, mice; conditions: topical, 48 hours during telogen
Description: as §1
To determine whether Ldha expression patterns correlate with activity of the Ldh enzyme, a colorimetric-based enzymatic assay was used to assess Ldh activity capacity in situ. Typically performed on protein lysates or aliquots with a plate reader, the Ldh activity assay was adapted to work in situ on frozen tissue sections. […]
as §2

lactate in sorted HFSCs = assay: Metabolomic analysis of lactate on HFSCs isolated from treated skin; format: in vivo, mice; conditions: topical application, skin treated for 48 hours
Description: as §1, §2

[2] = topical treatment of animals in telogen (day 50)

N#C/C(=C\c1cn(-c2ccccc2)c2ccccc12)C(=O)O [UK-5099, (E)-2-Cyano-3-(1-phenyl-1H-indol-3-yl)acrylic acid]
effect on the hair cycle (hair cycle; [2]): robust acceleration of the hair cycle
effect on the interfollicular epidermis (proliferation) (hair cycle; [2]): minor hyperproliferation of the interfollicular epidermis
time to full anagen, indicated by full coat of hair (hair cycle; topical, 20 μM): 14 days
skin pathology (entry into anagen) (hair cycle; topical, 20 μM, at 8 weeks, vehicle remained in telogen): enter an accelerated anagen
time to pigmentation and hair growth, indicative of entry into anagen (hair cycle; topical, 20 μM, vehicle shows none even after 12 days): 8 days
time in which acceleration of the hair cycle is seen (hair cycle; topical, at least 6 pairs of animals, vehicle vs UK-5099): 6 to 9 days
Ldh activity in HFSCs and interfollicular epidermis [1]: Ldh enzyme activity also seen in interfollicular epidermis; also recorded: increased Ldh activity
total levels of lactate in sorted HFSCs (lactate in sorted HFSCs): increases total levels of lactate

Source: patent US20220048908A1, “COMPOSITIONS AND METHODS FOR MODULATING HAIR GROWTH” (The Regents of the University of California, priority 2019, published 2022)
